# Reference: US20260356860A1, “2-SUBSTITUTED 3,4A,5,7,8,8A-HEXAHYDRO-4H-THIOPYRANO[4,3-DJPYRIMIDIN-4-ONES FOR WOUND TREATMENT” (priority 2022, published 2026)
# What was measured:
# Tankyrase 2 (TNKS2) = target: T1, Tankyrase 2 (TNKS2) (Homo sapiens, UniProt Q9H2K2); assay: TNK2 Binding Assay (Tankyrase 2 ribosylation, chemiluminescence); assay type: biochemical
# T1 sequence (Q9H2K2 1-1166): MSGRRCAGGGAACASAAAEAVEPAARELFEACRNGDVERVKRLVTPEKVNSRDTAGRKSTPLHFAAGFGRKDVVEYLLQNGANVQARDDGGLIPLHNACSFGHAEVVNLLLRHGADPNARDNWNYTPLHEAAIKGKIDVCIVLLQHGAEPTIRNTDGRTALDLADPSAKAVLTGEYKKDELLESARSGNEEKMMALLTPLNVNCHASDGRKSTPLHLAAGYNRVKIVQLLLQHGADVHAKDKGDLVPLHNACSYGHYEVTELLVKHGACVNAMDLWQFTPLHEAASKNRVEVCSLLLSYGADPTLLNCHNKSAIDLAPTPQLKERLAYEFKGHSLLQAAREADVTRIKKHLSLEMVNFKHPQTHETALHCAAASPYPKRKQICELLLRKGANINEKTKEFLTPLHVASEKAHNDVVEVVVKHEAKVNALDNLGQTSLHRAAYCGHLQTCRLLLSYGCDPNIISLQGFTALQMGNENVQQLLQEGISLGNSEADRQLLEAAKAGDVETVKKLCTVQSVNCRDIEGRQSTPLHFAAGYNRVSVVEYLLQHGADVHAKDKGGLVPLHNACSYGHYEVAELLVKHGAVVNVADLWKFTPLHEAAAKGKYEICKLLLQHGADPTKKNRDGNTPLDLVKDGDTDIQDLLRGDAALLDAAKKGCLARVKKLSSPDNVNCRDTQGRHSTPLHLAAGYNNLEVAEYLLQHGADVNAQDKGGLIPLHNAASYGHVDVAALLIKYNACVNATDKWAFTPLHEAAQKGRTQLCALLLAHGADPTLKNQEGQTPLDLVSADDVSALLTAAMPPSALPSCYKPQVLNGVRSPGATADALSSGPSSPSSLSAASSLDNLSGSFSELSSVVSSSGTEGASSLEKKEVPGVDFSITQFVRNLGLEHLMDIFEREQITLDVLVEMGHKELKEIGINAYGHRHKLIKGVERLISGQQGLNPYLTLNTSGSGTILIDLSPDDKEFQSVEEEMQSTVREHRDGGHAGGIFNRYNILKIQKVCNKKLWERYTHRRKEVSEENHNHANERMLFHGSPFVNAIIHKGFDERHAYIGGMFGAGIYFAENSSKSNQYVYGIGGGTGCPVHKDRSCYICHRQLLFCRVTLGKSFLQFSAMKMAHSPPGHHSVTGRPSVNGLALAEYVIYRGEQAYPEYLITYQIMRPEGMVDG
# Procedure: Tankyrase 2 assay (n=3) was performed with the following steps: step 1, coating a 96-well plate with 50 μL/well of histone solution; step 2, conducting ribosylation reaction; and step 3, detection.
# Step 1: Coating a 96-Well Plate with 50 μL/Well of Histone Solution.
# A 5× histone mixture was diluted 1:5 with PBS to make a 1× histone in PBS mixture. 50 μL of the histone mixture was added to each well and incubated at 4° C. overnight. The plate was washed three times using 200 μL PBST buffer (1×PBS containing 0.05% Tween*20 (polysorbate 20) per well. The plate was tapped onto a clean paper towel to remove the liquid. The wells were blocked by adding 200 μL of blocking buffer 3 to each well. The plate was incubated at room temperature for at least 90 minutes. The plate was washed three times with 200 μL PBST buffer. The plate was tapped onto a clean paper towel to remove the liquid.
# A fresh solution of 10 mM DTT in water was prepared.
# A master mix was prepared and delivered to each well (25 μL/well). Master mix delivered to each well: (2.5 μL of 10×PARP assay buffer (purchased from BPS Bioscience)+2.5 μL of PARP substrate mixture 2+17.5 μL of water+2.5 μL of 10 mM fresh DTT). The concentration of DTT in the master mix was 1 mM. 25 μL of master mix was added to each well.
# 1×PARP buffer with DTT was prepared. 10×PARP assay buffer was diluted to 1×PARP assay buffer containing DTT by adding 1 volume of 10×PARP assay buffer+1 volume of 10 mM DTT+8 volumes of water. The concentration of DTT in the 1×PARP assay buffer was 1 mM.
# 5 μL of a test inhibitor was added to each well labeled as “Test Inhibitor.” For the “Positive Control,” the PARP inhibitor, XAV939, was used. For the negative control, no inhibitor is added to the assay mix.
# The Tankyrase 2 (TNKS2) enzyme on ice was thawed. The tube containing the enzyme was spun briefly to recover the full content of the tube. The amount of TNKS2 enzyme required for the assay was calculated and the enzyme was diluted to 0.5 ng/μL with 1×PARP assay buffer with DTT. 16) The final concentration of TNKS2 enzyme in the assay was 2 nM. The reaction was initiated by adding 10 μL of diluted TNKS2 enzyme to each well designated “Positive Control” and “Test Inhibitor.” To each well designated as “Blank,” 10 μL of 1×PARP assay buffer with DTT was added. The plate was incubated at room temperature for 1 hour. The plate was washed three times with 100 μL of PBST buffer and the plate was tapped onto a clean paper towel.
# 1) Streptavidin-HRP was diluted 1:50 in Blocking buffer (purchased from BPS Bioscience) 3.50 μL of diluted Streptavidin-RP was added to each well and incubated for 30 minutes at room temperature. The plate was washed three times with 100 μL of PBST buffer and tapped onto a clean paper towel. Just before use, 1 volume of ELISA ECL Substrate A and 1 volume of ELISA ECL Substrate B were mixed on ice; and 100 μL was added to each well. Immediately, the plate was read in a luminometer or microtiter-plate reader capable of reading chemiluminescence. The “Blank” value was subtracted from all other values.
# new porcine skin = assay: Max force of healed wound; assay type: in vivo; settings: day 21; for Max Force / Max Force, Mean: topical
# Procedure: Additional tests were performed including elasticity (Table 12); max force (Table 13); tensile strength (strain) (Table 14); energy peak (Table 15); rete-ridge formation; and collagen organization (plane polarized light) (FIG. 24) of the healed wound sites, described as follows.
# A is saline (control), B is serum formulation control (vehicle), C is GO-HA (vehicle), D is Compound 1; E is Compound 1+GO-HA; F is Compound 8; G is Compound 8+GO-HA; H is Compound 10; and J is Compound 10+GO-HA. Descriptions for saline control, serum formulation control, and GO-HA are as provided above for FIG. 19.
# Max Force (N) is the average force required to break/rupture a material. All compounds of Formula (I) tested with or without GO-HA ranged from 18% to 68% improvement in max force compared to the saline control.
smiles,measurement,setting,value
"O=c1[nH]c(-c2ccc(B(O)O)cc2)nc2c1CSCC2 [Compound 1, (4-(4-oxo-3,5,7,8-tetrahydro-4H-thiopyrano[4,3-d]pyrimidin-2-yl)phenyl)boronic acid]",IC50,Tankyrase 2 (TNKS2),26 nM
same,Max Force,new porcine skin; individual value 1,290.184 N
same,Max Force,new porcine skin; individual value 2,278.868 N
same,Max Force,new porcine skin; individual value 3,250.554 N
same,Max Force,new porcine skin; individual value 4,273.195 N
same,"Max Force, Mean",new porcine skin,273.200 N
"O=c1[nH]c(-c2ccc(-c3ccc(Br)nc3)cc2)nc2c1CSCC2 [Compound 7, 2-(4-(6-bromopyridin-3-yl)phenyl)-3,5,7,8-tetrahydro-4H-thiopyrano [4,3-d]pyrimidin-4-one]",IC50,Tankyrase 2 (TNKS2),5 nM
"CC(C)(OCCO)c1ccc(-c2nc3c(c(=O)[nH]2)CSCC3)cc1 [Compound 8, 2-(4-(2-(2-hydroxyethoxy)propan-2-yl)phenyl)-3,5,7,8-tetrahydro-4H-thiopyrano[4,3-d]pyrimidin-4-one]",IC50,Tankyrase 2 (TNKS2),3.16 nM
same,Max Force,new porcine skin; individual value 1,404.094 N
same,Max Force,new porcine skin; individual value 2,488.094 N
same,Max Force,new porcine skin; individual value 3,273.110 N
same,Max Force,new porcine skin; individual value 4,330.413 N
same,Max Force,new porcine skin; individual value 5,169.61 N
same,"Max Force, Mean",new porcine skin,333.196 N
"O=c1[nH]c(-c2ccc(-c3ccc(B(O)O)cc3)cc2)nc2c1CSCC2 [Compound 10, (4′-(4-oxo-3,5,7,8-tetrahydro-4H-thiopyrano[4,3-d]pyrimidin-2-yl)-[1,1′-biphenyl]-4-yl)boronic acid]",IC50,Tankyrase 2 (TNKS2),3.29 nM
same,improvement in max force compared to the saline control,new porcine skin,68%
same,Max Force,new porcine skin; individual value 1,406.879 N
same,Max Force,new porcine skin; individual value 2,474.825 N
same,Max Force,new porcine skin; individual value 3,344.860 N
same,Max Force,new porcine skin; individual value 4,335.864 N
same,"Max Force, Mean",new porcine skin,390.607 N
"COC(=O)NCCOC(C)(C)c1ccc(-c2nc3c(c(=O)[nH]2)CSCC3)cc1 [Compound 18, methyl (2-((2-(4-(4-oxo-3,5,7,8-tetrahydro-4H-thiopyrano[4,3-d]pyrimidin-2-yl)phenyl)propan-2-yl)oxy)ethyl)carbamate]",IC50,Tankyrase 2 (TNKS2),4 nM
